Results: patent US10112907B2, “Substituted indazoles for treating tendon and/or ligament injuries” (NOVARTIS AG, priority 2016, dated 2018)

tested on: Scleraxis (Scx) gene transcriptional activation in TT-D6 Scx-luciferase (ScxL) cell line; assay: SCX-LUC in vitro assay (Scx-luciferase reporter); type: cell-based; conditions: Mus musculus, 96 h; Table 3; four days; read-out: Scx-Luc (EC50 μM)

Row | SMILES | EC50 [µM]
1 | Nc1n[nH]c2ccc(-c3ccc(S(=O)(=O)N4CC(F)(F)C[C@H]4CO)cc3Cl)c(F)c12 [Example 46, (S)-(1-((4-(3-amino-4-fluoro-1H-indazol-5-yl)-3-chlorophenyl)sulfonyl)-4,4-difluoropyrrolidin-2-yl)methanol] | 1.05
2 | Cc1cc(S(=O)(=O)N[C@H]2C[C@@H](O)C2)ccc1-c1ccc2[nH]nc(N)c2c1Cl [Example 30, 4-(3-amino-4-chloro-1H-indazol-5-yl)-N-((1s,3s)-3-hydroxycyclobutyl)-3-methylbenzenesulfonamide] | 0.752
3 | COc1c(-c2ccc(S(=O)(=O)N3CC(F)(F)C[C@H]3CO)cc2F)ccc2[nH]nc(N)c12 [Example 41, (S)-(1-((4-(3-amino-4-methoxy-1H-indazol-5-yl)-3-fluorophenyl)sulfonyl)-4,4-difluoropyrrolidin-2-yl)methanol] | 1.33
4 | Cc1cc(S(=O)(=O)NC2CC(F)(F)C2)ccc1-c1ccc2[nH]nc(N)c2c1C [Example 24, 4-(3-amino-4-methyl-1H-indazol-5-yl)-N-(3,3-difluorocyclobutyl)-3-methylbenzenesulfonamide] | 0.366
5 | Nc1n[nH]c2ccc(-c3ccc(S(=O)(=O)N4CC(F)(F)C[C@H]4CO)cc3F)c(Cl)c12 [Example 47, (S)-(1-((4-(3-amino-4-chloro-1H-indazol-5-yl)-3-fluorophenyl)sulfonyl)-4,4-difluoropyrrolidin-2-yl)methanol] | 0.986
6 | Cc1cc(S(=O)(=O)N[C@H]2CC[C@@H](C#N)CC2)ccc1-c1ccc2[nH]nc(N)c2c1C [Example 27, 4-(3-amino-4-methyl-1H-indazol-5-yl)-N-((1s,4s)-4-cyanocyclohexyl)-3-methylbenzenesulfonamide] | 1.35
7 | Cc1cc(S(=O)(=O)N2CC(O)C2)ccc1-c1ccc2[nH]nc(N)c2c1C [Example 11, 1-((4-(3-amino-4-methyl-1H-indazol-5-yl)-3-methylphenyl)sulfonyl)azetidin-3-ol] | 4.13
8 | Cc1cc(S(=O)(=O)N[C@@H]2CC[C@H](O)C2)ccc1-c1ccc2[nH]nc(N)c2c1C [Example 35, 4-(3-amino-4-methyl-1H-indazol-5-yl)-N-((1R,3S)-3-hydroxycyclopentyl)-3-methylbenzenesulfonamide] | 1.52
9 | Cc1cc(S(=O)(=O)NC2CCCC(O)C2)ccc1-c1ccc2[nH]nc(N)c2c1C (stereo not shown) [Example 25, 4-(3-amino-4-methyl-1H-indazol-5-yl)-N-(3-hydroxycyclohexyl)-3-methylbenzenesulfonamide] | 0.606
10 | Cc1cc(S(=O)(=O)N[C@@H]2CCCC[C@@H]2O)ccc1-c1ccc2[nH]nc(N)c2c1C [Example 17, 4-(3-amino-4-methyl-1H-indazol-5-yl)-N-((1R,2S)-2-hydroxycyclohexyl)-3-methylbenzenesulfonamide] | 4.8
11 | Cc1cc(S(=O)(=O)N[C@H]2C[C@H](O)C2)ccc1-c1ccc2[nH]nc(N)c2c1C [Example 9, 4-(3-amino-4-methyl-1H-indazol-5-yl)-N-((1r,3r)-3-hydroxycyclobutyl)-3-methylbenzenesulfonamide] | 4.96

More lines, now with the values ahead:

Row | EC50 [µM] | SMILES
12 | 1.69 | Cc1cc(S(=O)(=O)N(C)[C@@H]2CCC[C@@H]2O)ccc1-c1ccc2[nH]nc(N)c2c1C [Example 84, 4-(3-amino-4-methyl-1H-indazol-5-yl)-N-((1R,2S)-2-hydroxycyclopentyl)-N,3-dimethylbenzenesulfonamide]
13 | 2.53 | Cc1cc(S(=O)(=O)N2CCC(F)(F)CC2)ccc1-c1ccc2[nH]nc(N)c2c1C [Example 80, 5-(4-((4,4-difluoropiperidin-1-yl)sulfonyl)-2-methylphenyl)-4-methyl-1H-indazol-3-amine]
14 | 1.79 | COc1c(-c2ccc(S(=O)(=O)N3CC(F)(F)C[C@H]3CO)cc2C)ccc2[nH]nc(N)c12 [Example 85, (S)-(1-((4-(3-amino-4-methoxy-1H-indazol-5-yl)-3-methylphenyl)sulfonyl)-4,4-difluoropyrrolidin-2-yl)methanol]
15 | 1.86 | Cc1c(-c2ccc(S(=O)(=O)NC3CC(F)(F)C3)cc2Cl)ccc2[nH]nc(N)c12 [Example 68, 4-(3-amino-4-methyl-1H-indazol-5-yl)-3-chloro-N-(3,3-difluorocyclobutyl)benzenesulfonamide]
16 | 0.74 | Nc1n[nH]c2ccc(-c3ccc(S(=O)(=O)N4CC(F)(F)C[C@H]4CO)cc3Cl)c(Cl)c12 [Example 53, (S)-(1-((4-(3-amino-4-chloro-1H-indazol-5-yl)-3-chlorophenyl)sulfonyl)-4,4-difluoropyrrolidin-2-yl)methanol]
17 | 1.01 | Cc1cc(S(=O)(=O)N2C[C@@H](F)C[C@H]2CO)ccc1-c1ccc2[nH]nc(N)c2c1C [Example 92, ((2S,4S)-1-((4-(3-amino-4-methyl-1H-indazol-5-yl)-3-methylphenyl)sulfonyl)-4-fluoropyrrolidin-2-yl)methanol]
18 | 0.554 | Cc1c(-c2c(F)cc(S(=O)(=O)N3CC(F)(F)C[C@H]3CO)cc2F)ccc2[nH]nc(N)c12 [Example 89, (S)-(1-((4-(3-amino-4-methyl-1H-indazol-5-yl)-3,5-difluorophenyl)sulfonyl)-4,4-difluoropyrrolidin-2-yl)methanol]
19 | 0.63 | Cc1cc(S(=O)(=O)N2CCC(O)(C(F)(F)F)C2)ccc1-c1ccc2[nH]nc(N)c2c1C (stereo not shown) [Example 62, 1-((4-(3-amino-4-methyl-1H-indazol-5-yl)-3-methylphenyl)sulfonyl)-3-(trifluoromethyl)pyrrolidin-3-ol]
20 | 0.288 | Cc1cc(S(=O)(=O)N2C[C@H](F)C[C@H]2CO)ccc1-c1ccc2[nH]nc(N)c2c1C [Example 87, ((2S,4R)-1-((4-(3-amino-4-methyl-1H-indazol-5-yl)-3-methylphenyl)sulfonyl)-4-fluoropyrrolidin-2-yl)methanol]
21 | 1.5 | Nc1n[nH]c2ccc(-c3ccc(S(=O)(=O)N4CC(F)(F)C[C@H]4CO)cc3F)c(F)c12 [Example 61, (S)-(1-((4-(3-amino-4-fluoro-1H-indazol-5-yl)-3-fluorophenyl)sulfonyl)-4,4-difluoropyrrolidin-2-yl)methanol]
22 | 0.524 | Cc1cc(S(=O)(=O)N2C[C@@H](F)[C@@H](F)C2)ccc1-c1ccc2[nH]nc(N)c2c1C [Example 82, Meso-5-(4-(((3R,4S)-3,4-difluoropyrrolidin-1-yl)sulfonyl)-2-methylphenyl)-4-methyl-1H-indazol-3-amine]
23 | 0.108 | Cc1cc(S(=O)(=O)NC2CC(O)(C(F)(F)F)C2)ccc1-c1ccc2[nH]nc(N)c2c1F (stereo not shown) [Example 71, 4-(3-amino-4-fluoro-1H-indazol-5-yl)-N-((1s,3s)-3-hydroxy-3-(trifluoromethyl)cyclobutyl)-3-methylbenzenesulfonamide]
24 | 0.467 | Cc1cc(S(=O)(=O)N(C)C2CC(O)(C(F)(F)F)C2)ccc1-c1ccc2[nH]nc(N)c2c1C (stereo not shown) [Example 83, 4-(3-amino-4-methyl-1H-indazol-5-yl)-N-((1s,3s)-3-hydroxy-3-(trifluoromethyl)cyclobutyl)-N,3-dimethylbenzenesulfonamide]

same assay, conditions: Mus musculus; assays described above (Scx-Luc and ex vivo); read-out: EC50 in the assays described above

Row | SMILES | EC50 [µM]
25 | Cc1cc(S(=O)(=O)N2C[C@H](O)[C@@H](F)C2)ccc1-c1ccc2[nH]nc(N)c2c1C [(3S,4S)-1-((4-(3-amino-4-methyl-1H-indazol-5-yl)-3-methylphenyl)sulfonyl)-4-fluoropyrrolidin-3-ol] | > 10
